In ChEMBL document CHEMBL1131939, “The synthesis and P388 cytotoxicity of mycalazol 11 and related 5-acyl-2-hydroxymethylpyrroles” (1999) one finds IC50 data, which are given here for four compounds.

Molecules are shown by their SMILES. ≈ marks a conversion by molar mass, not a printed value.

For the test, the system named is P388. Description: In vitro cytotoxicity against the P388 murine leukemia cell line was determined. Type of test: functional. The settings on record: Mus musculus, read-out: ID50 (the source's name).
With `CCCCCCCCCCCCCCCCCCC(=O)c1ccc(CO)[nH]1`, the IC50 is 24 µg/mL (≈ 63.6 µM). Take `CCCCCCCCCCCC(=O)c1ccc(CO)[nH]1`: the IC50 was 21 µg/mL (≈ 75.2 µM). Take `CCCCCCCCCCCCC(=O)c1ccc(CO)[nH]1`: the IC50 amounted to 52 µg/mL (≈ 177 µM). With `CCCCCC(=O)c1ccc(CO)[nH]1`, the IC50 was determined as 78 µg/mL (≈ 399 µM).
